Measured values from a compilation of properties of binary mixtures (doi:10.1021/je401124t).

Experiment: xn = mol fraction of the nth substance listed
Settings: 101 kPa

COP(=O)([O-])OC.Cn1cc[n+](C)c1 + CCO
viscosity [mPa·s]
Settings	x2 = 0	x2 = 0.0999	x2 = 0.2028	x2 = 0.3009	x2 = 0.4074	x2 = 0.5028	x2 = 0.6	x2 = 0.6992	x2 = 0.7999	x2 = 0.9
293.15 K	416	339	246	134.3	77.7	–	–	13.76	–	–
298.15 K	291	238	182.5	98.7	–	30.76	–	11.97	5.6	2.824
303.15 K	210	–	138.5	78.5	48.7	25.78	18.08	10.5	–	2.567
308.15 K	155.6	130.7	106.8	62.9	39.62	–	15.59	–	4.509	2.341
313.15 K	119.2	100.8	84	51	32.73	18.94	13.59	8.27	4.077	2.143
318.15 K	–	79.1	67	41.98	27.44	16.42	11.88	7.41	–	1.97
323.15 K	74.2	–	54.4	35.06	23.3	14.35	10.51	6.68	3.378	–

COP(=O)([O-])OC.Cn1cc[n+](C)c1 + CCCO
viscosity [mPa·s]
Settings	x2 = 0	x2 = 0.098	x2 = 0.1993	x2 = 0.3018	x2 = 0.4	x2 = 0.5002	x2 = 0.5996	x2 = 0.6995	x2 = 0.799	x2 = 0.8998
293.15 K	416	296	211	–	85.2	50.8	29.52	17.53	9.79	4.441
298.15 K	–	215	154.1	93	66.9	41.59	25.38	15.17	8.63	3.929
303.15 K	210	159	–	74.1	53.6	–	–	13.16	7.61	3.492
308.15 K	155.6	121.1	–	59.5	43.67	28.52	18.35	11.51	6.76	3.118
313.15 K	119.2	93.9	71.2	48.5	36.1	24.02	–	10.13	6.04	2.795
318.15 K	92.8	–	57.8	39.92	–	–	13.79	8.97	5.42	2.516
323.15 K	74.2	60.9	47.8	–	25.67	17.68	–	8	–	2.273

CCCO + COP(=O)([O-])OC.Cn1cc[n+](C)c1
x1 = 1
Settings	viscosity [mPa·s]
293.15 K	2.188
298.15 K	1.974
303.15 K	1.761
308.15 K	1.575
313.15 K	1.416
318.15 K	1.273
323.15 K	1.15

CO + COP(=O)([O-])OC.Cn1cc[n+](C)c1
x1 = 1
Settings	viscosity [mPa·s]
293.15 K	0.586
298.15 K	0.552
308.15 K	0.491
313.15 K	0.465
323.15 K	0.418

CCO + COP(=O)([O-])OC.Cn1cc[n+](C)c1
x1 = 1
Settings	viscosity [mPa·s]
293.15 K	1.192
298.15 K	1.085
303.15 K	0.99
308.15 K	0.906
313.15 K	0.831
318.15 K	0.764
323.15 K	0.704

COP(=O)([O-])OC.Cn1cc[n+](C)c1 + CC(C)O
viscosity [mPa·s]
Settings	x2 = 0	x2 = 0.0999	x2 = 0.2032	x2 = 0.301	x2 = 0.402	x2 = 0.5002	x2 = 0.6	x2 = 0.7009	x2 = 0.7997	x2 = 0.9013
293.15 K	–	–	254	173.1	–	67	38.35	21.3	11.44	5.77
298.15 K	291	253	–	129.9	75.3	–	31.53	–	9.87	5
303.15 K	210	184.2	136.2	99.8	61.1	–	26.2	15.37	8.59	4.361
308.15 K	155.6	138.2	105	78.4	49.7	35.62	22.05	–	7.54	–
313.15 K	–	–	–	–	40.99	29.78	18.74	11.54	6.64	3.359
318.15 K	92.8	82.8	–	51.5	33.95	–	16.13	–	5.89	2.969
323.15 K	74.2	66.4	54	42.88	28.66	–	14.03	8.94	5.25	–

COP(=O)([O-])OC.Cn1cc[n+](C)c1 + CO
viscosity [mPa·s]
Settings	x2 = 0	x2 = 0.1054	x2 = 0.2009	x2 = 0.2977	x2 = 0.3984	x2 = 0.5028	x2 = 0.6018	x2 = 0.7027	x2 = 0.8002	x2 = 0.8998
293.15 K	416	278	174.8	111.5	68	36.25	–	10.21	4.9	–
298.15 K	–	201.1	121.9	–	–	29.9	17.07	9.02	4.419	1.776
303.15 K	210	149.7	–	67.9	43.95	–	14.7	8.01	4.006	1.642
308.15 K	155.6	114.3	–	54.4	36.27	–	12.81	7.16	3.65	1.523
313.15 K	119.2	89.4	60.5	44.4	30.38	18.06	11.25	6.44	3.336	1.416
318.15 K	92.8	–	49.2	36.86	25.8	15.62	9.96	–	3.061	1.322
323.15 K	74.2	58.3	40.66	–	22.16	–	8.88	5.3	2.82	1.243

CC(C)O + COP(=O)([O-])OC.Cn1cc[n+](C)c1
x1 = 1
Settings	viscosity [mPa·s]
293.15 K	2.439
298.15 K	2.134
303.15 K	1.845
308.15 K	1.603
313.15 K	1.4
318.15 K	1.228
323.15 K	1.083
